Experimental data published in patent publication US11292796B2 (SIGNAL PHARMACEUTICALS, LLC, priority 2008, dated 2022).
pIC50: −log10 of the molar value.

Biological target: T1, mTOR (Homo sapiens, UniProt P42345)
T1 construct: purchased Invitrogen PR8683A
Experiment: mTOR HTR-FRET assay
Format: biochemical
Details: read-out: Act. Level (IC50 in mTor HTR-FRET assay)
Method in brief: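 Test compounds, taken from 10 mM DMSO stocks and diluted, were mixed with mTOR enzyme (0.200 μg/mL) in Tris buffer pH 7.4 with 100 mM NaCl, 0.1% Tween-20 and 1 mM DTT. ATP/substrate addition initiated the reaction, alongside compound-free controls.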

T1 sequence (P42345 1360-2549 limits assumed): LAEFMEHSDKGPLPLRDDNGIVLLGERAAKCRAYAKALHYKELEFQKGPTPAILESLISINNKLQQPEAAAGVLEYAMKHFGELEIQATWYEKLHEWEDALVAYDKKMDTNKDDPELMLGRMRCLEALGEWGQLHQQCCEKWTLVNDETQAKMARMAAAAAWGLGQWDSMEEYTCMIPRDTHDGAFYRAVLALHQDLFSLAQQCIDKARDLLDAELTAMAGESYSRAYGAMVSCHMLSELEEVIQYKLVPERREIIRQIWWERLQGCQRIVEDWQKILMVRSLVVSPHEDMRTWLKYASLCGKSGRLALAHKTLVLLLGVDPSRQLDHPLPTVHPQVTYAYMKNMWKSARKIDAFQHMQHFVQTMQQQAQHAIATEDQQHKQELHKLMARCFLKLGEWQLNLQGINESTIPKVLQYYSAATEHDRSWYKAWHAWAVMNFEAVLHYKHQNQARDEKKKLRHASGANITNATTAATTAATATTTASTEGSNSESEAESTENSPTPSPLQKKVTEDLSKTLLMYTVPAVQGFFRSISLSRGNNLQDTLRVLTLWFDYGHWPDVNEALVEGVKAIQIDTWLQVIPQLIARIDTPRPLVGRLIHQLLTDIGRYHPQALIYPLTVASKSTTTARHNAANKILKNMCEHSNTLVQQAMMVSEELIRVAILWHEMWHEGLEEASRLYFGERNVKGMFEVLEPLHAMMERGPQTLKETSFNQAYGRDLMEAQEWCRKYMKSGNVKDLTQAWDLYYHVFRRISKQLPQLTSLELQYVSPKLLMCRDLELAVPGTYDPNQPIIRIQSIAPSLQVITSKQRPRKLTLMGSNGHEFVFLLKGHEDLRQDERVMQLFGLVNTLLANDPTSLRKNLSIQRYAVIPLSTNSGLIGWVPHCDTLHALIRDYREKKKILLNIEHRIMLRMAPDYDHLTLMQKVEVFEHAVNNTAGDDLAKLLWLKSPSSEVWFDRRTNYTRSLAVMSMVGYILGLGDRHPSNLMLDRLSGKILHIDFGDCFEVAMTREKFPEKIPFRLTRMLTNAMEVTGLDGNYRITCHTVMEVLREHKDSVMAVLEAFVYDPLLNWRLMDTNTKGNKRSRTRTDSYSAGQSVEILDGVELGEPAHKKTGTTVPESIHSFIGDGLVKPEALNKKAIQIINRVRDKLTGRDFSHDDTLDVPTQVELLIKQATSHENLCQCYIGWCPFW

Structure (SMILES) | pIC50
CO[C@H]1CC[C@@H](N2C(=O)CNc3ncc(-c4ccc(-c5nnc[nH]5)nc4C)nc32)C1 [Example 228, 1-((1R,3S)-3-methoxycyclopentyl)-7-(2-methyl-6-(4H-1,2,4-triazol-3-yl)pyridin-3-yl)-3,4-dihydropyrazino[2,3-b]pyrazin-2(1H)-one] | 6.60 to 11.30
CO[C@H]1CC[C@H](N2C(=O)CNc3ncc(-c4ccc(-c5nnc[nH]5)nc4C)nc32)C1 [Example 229, 1-((1S,3S)-3-methoxycyclopentyl)-7-(2-methyl-6-(4H-1,2,4-triazol-3-yl)pyridin-3-yl)-3,4-dihydropyrazino[2,3-b]pyrazin-2(1H)-one] | 6.60 to 11.30
O=C1CNc2ncc(-c3ccc4cc[nH]c4c3)nc2N1CCC1CCOCC1 [Example 232, 7-(1H-indol-6-yl)-1-(2-(tetrahydro-2H-pyran-4-yl)ethyl)-3,4-dihydropyrazino[2,3-b]pyrazin-2(1H)-one] | 6.30 to 6.60
CO[C@H]1CC[C@H](N2C(=O)CNc3ncc(-c4ccc(C(C)(C)O)cc4)nc32)CC1 [Example 233, 7-(4-(2-hydroxypropan-2-yl)phenyl)-1-(trans-4-methoxycyclohexyl)-3,4-dihydropyrazino[2,3-b]pyrazin-2(1H)-one] | 6.60 to 11.30
CNc1nc2c(C)cc(-c3cnc4c(n3)N(CCOC)C(=O)CN4)cc2[nH]1 [Example 237, 1-(2-methoxyethyl)-7-(4-methyl-2-(methylamino)-1H-benzo[d]imidazol-6-yl)-3,4-dihydropyrazino[2,3-b]pyrazin-2(1H)-one] | 6.60 to 11.30
Cc1cc(-c2cnc3c(n2)N(CC2CCOCC2)C(=O)CN3)cc2[nH]c(=O)[nH]c12 [Example 238, 7-(7-methyl-2-oxo-2,3-dihydro-1H-benzo[d]imidazol-5-yl)-1-((tetrahydro-2H-pyran-4-yl)methyl)-3,4-dihydropyrazino[2,3-b]pyrazin-2(1H)-one] | 6.00 to 6.30
Cc1cc(-c2nnc[nH]2)ccc1-c1cnc2c(n1)NC(=O)CN2 [Example 239, 7-(2-methyl-4-(4H-1,2,4-triazol-3-yl)phenyl)-3,4-dihydropyrazino[2,3-b]pyrazin-2(1H)-one] | 6.60 to 11.30
COCCN1C(=O)CNc2ncc(-c3cnc(-c4nc[nH]n4)cc3C)nc21 [Example 240, 1-(2-methoxyethyl)-7-(4-methyl-6-(1H-1,2,4-triazol-3-yl)pyridin-3-yl)-3,4-dihydropyrazino[2,3-b]pyrazin-2(1H)-one] | 6.60 to 11.30
Cc1cc(-c2nnc[nH]2)ccc1-c1cnc2c(n1)N(Cc1ccccc1)C(=O)CN2 [Example 241, 1-benzyl-7-(2-methyl-4-(4H-1,2,4-triazol-3-yl)phenyl)-3,4-dihydropyrazino[2,3-b]pyrazin-2(1H)-one] | 6.60 to 11.30
COCCN1C(=O)CNc2ncc(-c3ccc(-c4nnc[nH]4)c(F)c3)nc21 [Example 242, 7-(3-fluoro-4-(4H-1,2,4-triazol-3-yl)phenyl)-1-(2-methoxyethyl)-3,4-dihydropyrazino[2,3-b]pyrazin-2(1H)-one] | 6.60 to 11.30
O=C1CNc2ncc(-c3ccc(-c4nnc[nH]4)c(F)c3)nc2N1CCC1CCOCC1 [Example 243, 7-(3-fluoro-4-(4H-1,2,4-triazol-3-yl)phenyl)-1-(2-(tetrahydro-2H-pyran-4-yl)ethyl)-3,4-dihydropyrazino[2,3-b]pyrazin-2(1H)-one] | 6.60 to 11.30
COCCN1C(=O)CNc2ncc(-c3ccc(-c4nc[nH]n4)c(F)c3C)nc21 [Example 244, 7-(3-fluoro-2-methyl-4-(1H-1,2,4-triazol-3-yl)phenyl)-1-(2-methoxyethyl)-3,4-dihydropyrazino[2,3-b]pyrazin-2(1H)-one] | 6.60 to 11.30
Cc1cc(-c2nnc[nH]2)c(F)cc1-c1cnc2c(n1)N(CCC1CCOCC1)C(=O)CN2 [Example 247, 7-(5-fluoro-2-methyl-4-(4H-1,2,4-triazol-3-yl)phenyl)-1-(2-(tetrahydro-2H-pyran-4-yl)ethyl)-3,4-dihydropyrazino[2,3-b]pyrazin-2(1H)-one] | 6.60 to 11.30
